For this test, the target named is T1, Ectonucleotide pyrophosphatase/phosphodiesterase family member 1 (Homo sapiens, UniProt P22413).
T1 sequence (P22413 whole entry): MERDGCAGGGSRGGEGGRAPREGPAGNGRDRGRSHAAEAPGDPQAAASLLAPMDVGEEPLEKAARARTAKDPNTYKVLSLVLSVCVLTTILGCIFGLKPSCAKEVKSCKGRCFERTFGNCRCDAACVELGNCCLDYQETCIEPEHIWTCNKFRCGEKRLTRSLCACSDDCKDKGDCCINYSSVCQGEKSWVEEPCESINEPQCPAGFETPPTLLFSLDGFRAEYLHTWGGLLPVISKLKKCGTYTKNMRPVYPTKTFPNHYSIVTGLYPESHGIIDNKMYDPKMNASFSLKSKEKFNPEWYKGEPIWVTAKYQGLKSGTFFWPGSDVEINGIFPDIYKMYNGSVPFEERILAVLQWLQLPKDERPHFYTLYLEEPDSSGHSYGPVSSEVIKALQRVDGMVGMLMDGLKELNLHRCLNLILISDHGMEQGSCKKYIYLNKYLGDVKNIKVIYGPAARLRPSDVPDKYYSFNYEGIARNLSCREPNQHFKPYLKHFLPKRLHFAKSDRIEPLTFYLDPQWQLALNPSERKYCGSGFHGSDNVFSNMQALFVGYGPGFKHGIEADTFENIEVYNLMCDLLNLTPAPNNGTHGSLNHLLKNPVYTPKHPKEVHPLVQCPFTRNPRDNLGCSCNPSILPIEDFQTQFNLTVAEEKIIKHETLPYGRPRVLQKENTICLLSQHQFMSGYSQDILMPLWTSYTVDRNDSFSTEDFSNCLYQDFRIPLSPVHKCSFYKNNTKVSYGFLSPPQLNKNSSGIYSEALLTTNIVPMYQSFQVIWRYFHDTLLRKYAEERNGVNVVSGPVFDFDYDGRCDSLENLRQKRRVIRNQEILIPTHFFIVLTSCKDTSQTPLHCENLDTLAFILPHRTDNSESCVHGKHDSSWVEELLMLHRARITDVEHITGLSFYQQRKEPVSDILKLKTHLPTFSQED
Put plainly: Inhibition of human recombinant ENPP1 at pH 7.5.

Consider `COc1cc2nccc(Nc3ccc(CC(=O)NO)cc3)c2cc1OC` [US20240383893, Compound A-1], for which the IC50 stood at 89 nM.

For orientation: IC50 means the midpoint of a concentration-inhibition curve.
